{"source": "patent US20250009765A1", "about": "“COMPOSITIONS AND METHODS FOR REDUCING SLEEP DI[…] TREATING SLEEP DISORDERS” (FloraScience Inc., priority 2023, published 2025)", "assay_type_in_all_cases": "in vivo, human", "key": {"sleep disturbance [1]": {"tested_on": "sleep disturbance", "assay": "PROMIS Sleep Disturbance 8A survey, randomized blinded placebo-controlled study", "method": "(§1) The primary aim of this study was to assess the effects of three different formulations of TruCBN softgels and a formulation of 4 mg melatonin on sleep quality, relative to placebo control. There were 5 arms within the study; (1) 4 mg melatonin, (2) 25 mg CBN, (3) 50 mg CBN, (4) 100 mg CBN, and (5) placebo (see Table 1 for further details on study arm formulations). All study arms provided the test article as a softgel. Participants were instructed to take 1 softgel 1-2 hours before bed. To ensure that results were not biased, participants were randomly assigned to product, were blinded to the contents, and were not told what they were taking until the conclusion of the study. The secondary aim of the study was to assess the tolerability of the three formulations of TruCBN softgels and 4 mg melatonin, relative to placebo.\n(§2) Study participants were at least 21 years old, endorsed a desire for better sleep quality, and expressed interest in taking a cannabinoid product to improve their sleep. The study was entirely virtual; participants were recruited through online recruitment channels, study product was delivered directly to participants' homes, and all data were collected via online surveys delivered to their mobile device or computer. There were four phases of the study (see FIG. 1 for study timeline): (1) Recruitment and Randomization, (2) Baseline (1 week), (3) Study period (2-5 weeks), and (4) Conclusion.\nPROMIS™ Sleep Disturbance 8A: An 8-question survey, with severity thresholds based on T-scores not raw scores. The severity scores are established as follows: • “None to slight”=Less than 55 • “Mild”=55.0-59.9 • “Moderate”=60.0-69.9 • “Severe”=70 and up\nThe range of raw scores were from 8 to 40, with higher scores translating to greater sleep disturbance (i.e., worse sleep quality). PROMIS™ Sleep Disturbance 8A threshold for minimally important difference: One-half the standard deviation of the baseline score (Purvis, Taylor E. et al., SPINE, 2018, 43(21):1512-1520).\n(§3) After receiving study product, each participant was instructed to take 1 softgel each day orally 1-2 hours before bed and complete weekly health and product use surveys. This phase of the study lasted about 4 weeks.\n(§4) For precision, adjustments were made for sex, age, race, ethnicity, and body mass index (BMI) in every model. […] Analysis was conducted using Stata 17 and R. An intent-to-treat analysis was run, meaning that all participants who were assigned product (aside from the aforementioned exclusions) were included in the analysis according to their product assignment, regardless of product adherence or study attrition. Visuals of the predicted marginal means of health scores, rather than the raw mean scores, were prepared. Predicted marginal means were calculated from the statistical models and better represent the true differences between arms adjusting for any potential imbalances across arms. A finding that was “significant” means that the likelihood of falsely rejecting the null hypothesis that there were no differences between groups was very small (less than 5%; i.e., the p-value was less than 0.05). In other words, when certain findings were said to be “significant” they are not considered the result of random variation."}, "[2]": {"assay": "Average time to effect reported by participants", "conditions": "4 mg melatonin softgel, oral", "method": "as §3\nParticipants reported experiencing an effect between 46 and 55 minutes after taking their study product."}, "sleep disturbance [3]": {"tested_on": "sleep disturbance", "assay": "Participant global impression of change (PGIC) in sleep disturbance", "method": "as §1\nParticipants received a final study survey asking about their overall experiences and impressions. Afterwards they also receive a Report containing their individualized data.\nas §4"}, "[4]": {"assay": "Tolerability: side effects reported by participants", "conditions": "4 mg melatonin", "method": "as §1, §3\nThe side effects for all study arms were similar in frequency and mostly mild; none were considered serious or required use of emergency or non-emergency healthcare services. The most commonly reported side effect was grogginess or drowsiness (see FIG. 7). Additional side effects reported by some participants included: chest pain, constipation, urinary tract infection, tingling in lips, dry mouth, weight gain, dry or itchy eyes, low libido, rash, and brain fog."}, "sleep disturbance [5]": {"tested_on": "sleep disturbance", "assay": "PROMIS Sleep Disturbance SF4A survey, randomized blinded placebo-controlled study", "method": "as §1, §2\nThe PROMIS™ Sleep Disturbance SF4A threshold for minimally important difference: One-half the standard deviation of the baseline score (Norman, G. R. et al., Med. Care, 2003, 41:582-592).\nas §3, §4"}, "[6]": {"conditions": "4 mg melatonin − placebo, 95% CI in parentheses"}, "[7]": {"conditions": "4 mg melatonin, 30% or greater reduction from baseline"}, "[8]": {"conditions": "4 mg melatonin, improvement = 30% or greater reduction from baseline, 95% CI in parentheses"}}}
{"compound": "COc1ccc2[nH]cc(CCNC(C)=O)c2c1", "note": "[melatonin, reference compound]", "values": [{"measurement": "Parameter Estimate for PROMIS Sleep Disturbances 8a, Treatment", "setting": "sleep disturbance [1]; 4 mg Melatonin, reference placebo, linear mixed-effects model", "value": "−0.56"}, {"measurement": "Relative Risk for meaningful clinical improvement on the PROMIS Sleep Disturbance 8A", "setting": "sleep disturbance [1]; [6]", "value": "1.43 (0.7, 2.16)"}, {"measurement": "Observed % Achieving Meaningful Clinical Improvement on the PROMIS Sleep 8A", "setting": "sleep disturbance [1]; [7]", "value": 51.9, "unit": "%"}, {"measurement": "% experiencing MCID in PROMIS Sleep Disturbance 8A score", "setting": "sleep disturbance [1]; 4 mg melatonin, MCID = score reduction of one half the standard deviation of the baseline score", "value": 51.9, "unit": "%"}, {"measurement": "Estimated marginal percentage achieving meaningful clinical improvement on the PROMIS Sleep 8A", "setting": "sleep disturbance [1]; [8]", "value": "50.5% (37.54%, 67.94%)"}, {"measurement": "Estimated marginal mean, PROMIS Sleep Disturbance 8A", "setting": "sleep disturbance [1]; 4 mg melatonin, week 1", "value": 20.7}, {"measurement": "Estimated marginal mean, PROMIS Sleep Disturbance 8A", "setting": "sleep disturbance [1]; 4 mg melatonin, week 2", "value": 20.4}, {"measurement": "Estimated marginal mean, PROMIS Sleep Disturbance 8A", "setting": "sleep disturbance [1]; 4 mg melatonin, week 3", "value": 20.7}, {"measurement": "Estimated marginal mean, PROMIS Sleep Disturbance 8A", "setting": "sleep disturbance [1]; 4 mg melatonin, week 4", "value": 20.4}, {"measurement": "Average time to effect", "setting": "[2]", "value": 49.1, "unit": "min"}, {"measurement": "Parameter estimate for PGIC in sleep disturbance", "setting": "sleep disturbance [3]; 4 mg Melatonin, treatment reference placebo, log-odds scale", "value": 0.79}, {"measurement": "Marginal mean (95% confidence interval), sleep disturbance PGIC", "setting": "sleep disturbance [3]; 4 mg melatonin", "value": 3.88}, {"measurement": "Odds Ratio (95% Confidence interval), sleep disturbance PGIC", "setting": "sleep disturbance [3]; 4 mg melatonin − placebo, Dunnett correction", "value": "2.21 (1.15, 4.21)"}, {"measurement": "% of participants reporting any side effects", "setting": "[4]", "value": 11.9, "unit": "%"}, {"measurement": "Relative Risk for meaningful clinical improvement on the PROMIS Sleep SF4A", "setting": "sleep disturbance [5]; [6]", "value": "1.49 (0.74, 2.25)"}, {"measurement": "Observed % Achieving Meaningful Clinical Improvement on the PROMIS Sleep SF4A", "setting": "sleep disturbance [5]; [7]", "value": 53.25, "unit": "%"}, {"measurement": "Estimated marginal percentage achieving meaningful clinical improvement on the PROMIS Sleep SF4A", "setting": "sleep disturbance [5]; [8]", "value": "51.25% (38.25%, 68.7%)"}, {"measurement": "Estimated marginal mean, PROMIS Sleep Disturbance SF4A", "setting": "sleep disturbance [5]; 4 mg melatonin, week 1", "value": 10.8}, {"measurement": "Estimated marginal mean, PROMIS Sleep Disturbance SF4A", "setting": "sleep disturbance [5]; 4 mg melatonin, week 2", "value": 10.7}, {"measurement": "Estimated marginal mean, PROMIS Sleep Disturbance SF4A", "setting": "sleep disturbance [5]; 4 mg melatonin, week 3", "value": 10.7}, {"measurement": "Estimated marginal mean, PROMIS Sleep Disturbance SF4A", "setting": "sleep disturbance [5]; 4 mg melatonin, week 4", "value": 10.5}]}
